Active and inactive are the calls of the source.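 The calls were made as follows: active = significant rise in GFP-LC3 puncta area per cell versus the same autophagy-inducer co-treatment given without compound; inactive = the rest.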
Test system: HeLa GFP-LC3 puncta imaging, 4 h
Test: autophagy induction assessed by green fluorescent protein-tagged microtubule-associated protein 1 light chain 3 foci, microscopy imaging, HeLa reporter line expressing fluorescent MAP1 light chain 3, co-treatment with rapamycin or Torin1 (AID 1963957)
Settings: for puncta normalized to Torin1: at 20 µM, active compounds read high

Q: What does the source list for CCC(C)(C)C(=O)C(=O)N1CCCC[C@H]1C(=O)N[C@H](CCc1ccc(OC)cc1)C(=O)N1[C@@H]2CC[C@H]1CC(Nc1nc(NCCc3sc(N)nc3C)nc(NCCn3cnc4ccccc43)n1)C2 (stereo partly specified)?
A: puncta normalized to Torin1 (no co-treatment): 0.49; puncta normalized to Torin1 (with Rapamycin): 1.54; puncta normalized to Torin1 (with Torin1): 2.17

Q: For CS(C)=O, which puncta normalized to Torin1 (no co-treatment) is on record?
A: 0 (inactive)

Q: Which results are given for CCC(C)(C)C(=O)C(=O)N1CCCC[C@H]1C(=O)N[C@H](CCc1ccc(OC)cc1)C(=O)N1[C@@H]2CC[C@H]1CC(Nc1nc(NCCc3sc(N)nc3C)nc(N3CCn4ncnc4C3)n1)C2 (stereo partly specified)?
A: EC50 (no co-treatment): 12 µM; EC50 (with Rapamycin): 11.5 µM; EC50 (with Torin1): 29.3 µM

Q: Which results are given for CCC(C)(C)C(=O)C(=O)N1CCCC[C@H]1C(=O)N[C@H](CCc1ccc(OC)cc1)C(=O)N1[C@@H]2CC[C@H]1CC(Nc1nc(NCCc3sc(N)nc3C)nc(NCc3ccnc(CO)c3)n1)C2 (stereo partly specified)?
A: puncta normalized to Torin1 (no co-treatment): 0.14 (inactive); puncta normalized to Torin1 (with Rapamycin): 1.02; puncta normalized to Torin1 (with Torin1): 1.59

Q: With CCC(=O)N1CCN(c2ccc(-n3c(=O)ccc4cnc5ccc(-c6cnc7ccccc7c6)cc5c43)cc2C(F)(F)F)CC1 as the molecule, how does the puncta normalized to Torin1 (with Torin1) read?
A: 1

Q: CO[C@H]1C[C@@H]2CC[C@@H](C)[C@@](O)(O2)C(=O)C(=O)N2CCCC[C@H]2C(=O)O[C@H]([C@H](C)C[C@@H]2CC[C@@H](O)[C@H](OC)C2)CC(=O)[C@H](C)/C=C(\C)[C@@H](O)[C@@H](OC)C(=O)[C@H](C)C[C@H](C)\C=C/C=C/C=C/1C was tested. Which puncta normalized to Torin1 (with Rapamycin) did it give?
A: 0.39

Q: How did the puncta normalized to Torin1 (no co-treatment) turn out when CCC(C)(C)C(=O)C(=O)N1CCCC[C@H]1C(=O)N[C@H](CCc1ccc(OC)cc1)C(=O)N1CC[C@H](Nc2nc(NCCc3sc(N)nc3C)nc(N(C)Cc3nnc4n3CCC4)n2)C1 was run?
A: -0.05 (inactive)

Q: What about the puncta normalized to Torin1 (with Rapamycin) of the same molecule?
A: 0.32 (inactive)

Q: What about the puncta normalized to Torin1 (with Torin1) of the same molecule?
A: 0.72 (inactive)

Q: Which puncta normalized to Torin1 (no co-treatment) does the source give for CCC(C)(C)C(=O)C(=O)N1CCCC[C@H]1C(=O)N[C@H](CCc1ccc(OC)cc1)C(=O)N1CC(Nc2nc(NCCc3sc(N)nc3C)nc(NCCn3cnc4ccccc43)n2)C1 here?
A: 0.06 (inactive)

Q: And the puncta normalized to Torin1 (with Rapamycin)?
A: 0.85

Q: What about the puncta normalized to Torin1 (with Torin1) of the same molecule?
A: 1.47 (inactive)

Q: CCC(C)(C)C(=O)C(=O)N1CCCC[C@H]1C(=O)N[C@H](CCc1ccc(OC)cc1)C(=O)N1[C@@H]2CC[C@H]1CC(Nc1nc(NCCc3sc(N)nc3C)nc(N(C)Cc3nnc4n3CCC4)n1)C2 (stereo partly specified) was tested. Which puncta normalized to Torin1 (no co-treatment) did it give?
A: 0.13 (inactive)

Q: And the puncta normalized to Torin1 (with Rapamycin)?
A: 0.68 (inactive)

Q: And the puncta normalized to Torin1 (with Torin1)?
A: 0.98 (inactive)

Source: PubChem BioAssay AID1963957 (Xavier Lab, Infectious Disease and Microbiome Program, …, 2024)
